Laboratory results from patent US20230181721A1 (priority 2020, published 2023).

Legend:
HLA-A2.1 transgenic mice [1] = conditions: mouse, in vivo
HLA-A2.1 transgenic mice [2] = conditions: mouse, in vivo; remark: listed apart in the source
HLA-A2.1 transgenic mice [3] = conditions: mouse, in vivo; remark: listed apart in the source
human PBMC = type: cell-based

| Substance | tetramer response (HLA-A2.1 transgenic mice [1]) | Trm response (HLA-A2.1 transgenic mice [2]) | ELIspot (YES/NO) (HLA-A2.1 transgenic mice [3]) | Trm (response) (HLA-A2.1 transgenic mice [2]) | Patient response (human PBMC) |
| --- | --- | --- | --- | --- | --- |
| AVSKGVHFI [3_neoB] | medium | No | Yes |  |  |
| YLYALVYFV [54_neoA] | high | Yes | Yes |  |  |
| KLSYGIATE [22_neoB] | high | No | No |  |  |
| NLLKDCPAV [33_wt] | medium | No | Yes |  |  |
| ALSKGVHFV [3_wt] | medium | No | Yes | No | Yes |
| GLMWLSYFV [14_neoA] | medium | No | Yes | No | Yes |
| RLNEVAKNV [38_neoA] | high | No | No |  |  |
| YLNSTNVTV [51_neoA] | high | Yes | Yes |  |  |
| SAPGVFCGV [41_neoB] | high | No | Yes | No | YES |
| FLLNKEMYL [8_wt] | medium | No | Yes | No | Yes |
| GLSRIGMEV [15_neoA] | high | No | No |  |  |
| KLADYNYKV [19_neoA] | low |  | Yes |  | Yes |
| FMAGLIAIV [6_neoB] | medium | No | Yes |  |  |
| MMISAGFSL [31_wt] |  |  |  |  | Yes |
| SLIAYTMSV [40_neoA] | medium | No | Yes |  |  |
| VVFLHVTYV [48_wt] | high | No | Yes | No | Yes |
| LLLTILTSV [26_neoA] | medium | Yes | Yes | Yes | Yes |
| LLLPQGTTV [29_neoA] | medium | Yes | No | Yes | Yes |
| SAWALIISV [42_neoB] | high | Yes | Yes | Yes | Yes |
| LLWLIINLV [28_neoA] | high | No | Yes | No | Yes |
| LVSAGIFGV [27_neoB] | high | Yes | Yes | Yes | Yes |
| LALLLLDRL [23_wt] | medium | Yes | Yes | Yes | Yes |
| VLFLHVTYV [48_neoA] | high | No | Yes | No | Yes |

| Substance | tetramer response (HLA-A2.1 transgenic mice [1]) | Trm response (HLA-A2.1 transgenic mice [2]) | ELIspot (YES/NO) (HLA-A2.1 transgenic mice [3]) | Trm (response) (HLA-A2.1 transgenic mice [2]) | Patient response (human PBMC) |
| --- | --- | --- | --- | --- | --- |
| YLMADLVYT [55_neoB] | medium | No | Yes |  |  |
| QLEMELTPV [36_wt] | medium | Yes | No | Yes | Yes |
| LLSAGIFGV [27_neoA] | high | No | Yes | No | Yes |
| RLMTWLDMV [37_neoA] | high | No | Yes | No | Yes |
| FLAGLIAIV [6_neoA] | high | Yes | Yes | Yes | Yes |
| LLTGRLQSV [24_neoA] | high | No | Yes |  |  |
| WLMWLIINL [49_wt] | high | No | No |  |  |
| VSFLHVTYV [48_neoB] | high | Yes | Yes | Yes | Yes |
| NLIDSYFVV [32_wt] | medium | Yes | Yes | Yes | Yes |
| LLLDRLNQV [25_neoA] | medium | No | Yes |  |  |
| MLAKALRKV [30_wt] | high | No | Yes | No | Yes |
| RLNQLESKV [39_neoA] | medium | Yes | No |  |  |
| VLMAPISAV [46_neoA] | medium | No | Yes |  |  |
| CLEASFNYV [5_neoA] | medium | Yes | No | Yes | Yes |
| l_neoA (ALNTLVKQV) | high | Yes | Yes | Yes | Yes |
| KLKDCVMYA [20_wt] | medium | Yes | No |  |  |
| FTAHIQWMV [7_neoB] | medium | No | Yes |  |  |
| NLNESLIDL [34_wt] | medium | No | No |  |  |
| SMWALIISV [42_wt] | high | Yes | Yes | Yes | Yes |
| GTSRIGMEV [15_neoB] | high | No | No |  |  |
| VLPTKLNDV [47_neoA] | medium | Yes | No | Yes | Yes |
| RTMTWLDMI [37_neoB] | high | No | Yes | No | Yes |
